{"source": "patent US8350062B2", "about": "“Synthesis and anticancer activity of new actin-targeting small-molecule agents” (priority 2009, dated 2013)", "key": {"G-actin [1]": {"target": "T1, G-actin (Oryctolagus cuniculus, UniProt P68135)", "T1 construct": "Actin was purified from rabbit muscle acetone powder; tissue Pel-Freez Biologicals (acetone powder); host or cells: rabbit muscle acetone powder", "assay": "Isothermal titration calorimetry, binding to monomeric actin", "design": "species or system rabbit", "experimental": "Isothermal Titration Calorimetry. A solution of rabbit skeletal muscle actin (5-10 μM) was titrated with bistramide A or its analog (50-100 μM) at 25° C. in buffer containing 2 mM Tris HCl, pH 8.0, 0.2 mM CaCl2, 0.01% NaN3, 0.2 mM ATP, 0.2 mM 2-mercaptoethanol. Dissociation constants were calculated from the binding curve using Origin analytical software (OriginLab) with the binding model involving a single set of identical sites"}, "A549 cells": {"tested_on": "A549 cells", "assay": "Cell viability assay (CellTiter-Glo), growth inhibition of A549 cells", "format": "cell-based, human", "settings": "Homo sapiens, A549, 48 h, 48 h incubation", "experimental": "Cell Viability Assays. All assays were performed using at least three replicate wells for each concentration tested. Original 10-25 mM DMSO stock solution of bistramide A or its analogs was diluted to 100 μM for analogs 4-8, 10 μM for analog 3, 5 μM for analog 2 and 1 μM for bistramide A (1) with F-12K cell culture media supplemented with 10% fetal bovine serum, 100 I.U./ml penicillin, 100 μg/ml streptomycin and 2 mM L-glutamine. Two-fold serial dilutions were performed and used for cell-based assays. A549 cells were grown in 96-well white plates at the density of 1,000 cells per well in 100 μl F-12K cell culture media. Cells were allowed to attach over 24 h and treated with 30 μl of the drug solution and incubated further for 48 h. After incubation, cell viability was determined using luminescence-based commercial kit (CellTiter-Glo, Promega) and luminescence measured using a Wallac Victor 3 plate reader. To measure cell growth inhibition, viability assays were performed twice: at initial time point T0 and after 48 h incubation (T48). Change in the number of viable cells was measured, and GI50 was calculated from sigmoidal plots. For analog 10, growth of A549 and PC3 cells was monitored over 96 h following addition of the drug. 100 μM was the highest concentration tested. At no point did the total DMSO conc. exceed 1%."}, "F-actin in A549 cells": {"tested_on": "F-actin in A549 cells", "assay": "Fluorescent visualization of F-actin in A549 cells (Alexa Fluor 488 phalloidin)", "format": "cell-based, human", "settings": "2 h incubation", "experimental": "The presence of the enone increased the severing efficiency of the analogs three-fold. […] We determined whether it was the depletion of actin filaments by analogs 2-5 which was responsible for the growth inhibition of A549 cells. Each of the compounds was incubated with A549 cells for 2 h at a concentration that exceeded the GI50 value by a factor of 5. The cells were then fixed, permeabilized and filamentous actin was visualized by fluorescence microscopy following Alexa Fluor 488 phalloidin staining. […] They induced depolymerization at 150 nM for bistramide A (1), 500 nM for analog 2 and 2 μM for analog 3. Analogs 4 and 5 induced depolymerization of actin only at concentrations as high as 100 μM. […] This observation was consistent with the enhanced cell-based activity of the compounds containing the C(1)-C(4) enone moiety.\nFluorescent Visualization Of F-Actin In Cells. A549 cells grown on coverslips were incubated with analogs 4-8 (100 μM) analog 3 (2 μM) or analog 2 (500 nM) or bistramide A (150 nM) in F-12K cell culture medium for 2 h, fixed with 3% formaldehyde in PBS at 25° C. for 5 min and permeabilized with 0.1% Triton X-100 at 25° C. for 10 min. After washing with PBS, coverslips were stained with Alexa Fluor 488 Phalloidin and visualized by fluorescence microscopy."}, "G-actin [2]": {"target": "T1, G-actin", "assay": "Interaction with actin by MALDI-TOF (covalent modification)", "format": "biochemical, rabbit", "settings": "1:1 actin-drug complex, 30 min", "experimental": "Interaction Of Bistramide-Based Compounds With Actin By MALDI-TOF. A 1:1 actin-drug complex was incubated for 30 min in 2 mM Tris-HCl, pH 8.0, 0.2 mM CaCl2, 0.01% NaN3, 0.2 mM ATP, 1 mM 2-mercaptoethanol, diluted with deionized water to 26 μM and mixed with an equal volume of a solution of 10 mg/ml sinapinic acid in 50% CH3CN— 0.1% TFA. MALDI spectra were obtained on a Voyager-DE PRO biospectrometry workstation."}, "[3]": {"tested_on": "non-small cell broncho-pulmonary carcinoma xenografts", "settings": "mouse, in vivo; cited from earlier work"}, "[4]": {"settings": "mouse, in vivo; cited from earlier work"}, "filamentous actin": {"target": "filamentous actin (Oryctolagus cuniculus, UniProt P68135)", "assay": "TIRF microscopy of actin filament severing and depolymerization", "format": "biochemical, rabbit", "design": "Actin was purified from rabbit muscle acetone powder; tissue Pel-Freez Biologicals (acetone powder); host or cells: rabbit muscle acetone powder", "description": "To gain further insight into the mode of action of bistramide A, we next investigated the interaction of the natural product and its analogs with filamentous actin. […] Similar observations have been reported for several other actin-binding natural products. However, this effect could provide only limited mechanistic information and may primarily reflect the binding of a small molecule to the filaments in close proximity to the dye and quenching of pyrene fluorescence, which could be independent of the rates of actin depolymerization. Some proteins like myosin and Actin Depolymerizing Factor (ADF)/Cofilin are known to do so. Total internal reflection fluorescence (TIRF) microscopy has recently emerged as a powerful tool to investigate actin filament dynamics and its regulation by several actin-binding proteins, as well as latrunculin A, which is […] depolymerizing filamentous actin in vitro. Thus, we decided to employ TIRF microscopy to observe in real time the effects of bistramide-based compounds on actin polymerization in vitro. We believe this is the first instance where TIRF microscopy has been utilized to study the severing of actin filaments by a small molecule. We polymerized G-actin containing 25% of tetramethylrhodamine-functionalized and 10% of biotin-functionalized actin. The resulting actin filaments were immobilized onto the streptavidin-coated glass slides (in a flow cell). Analogs 1-8 were flown through the flow cell and imaged by time-lapse TIRF microscopy.\nTotal Internal Reflection Fluorescence Microscopy. Actin filament severing was studied using a custom-built total internal reflection fluorescence microscope. Images were collected with a 100×, 1.45 NA objective (Olympus) and an EMCCD camera (iXon, Andor Technologies). Glass flow cell (6 μl volume) was washed with 0.25 mg/ml neutravidin in F-buffer (50 mM KCl, 1 mM MgCl2, 1 mM EGTA, 10 mM imidiazole, 2 mM ATP, 0.2 mM 2-mercaptoethanol, 2 min) and blocked with 1 mg/ml BSA in F-buffer (2 min). Ten microliters of 200 nM Mg^2+-F-actin (10% biotinylated, 25% labeled with maleimide-6-tetramethylrhodamine) in TIRF-buffer (50 mM KCl, 1 mM MgCl2, 1 mM EGTA, 10 mM imidiazole, 2 mM ATP, 4.5 mg/ml glucose, 0.5% 2-mercaptoethanol, 4.3 mg/ml glucose oxidase, 0.7 mg/ml catalase) was added to the flowcell and incubated for 2 min. The chamber was rinsed with TIRF-buffer and imaged. Compounds were freshly diluted from their DMSO stock solutions in TIRF-buffer and were added to the chamber immediately after the start of each experiment. Images were collected at 0.2-s exposures every 3 s for 200 frames. For kinetics studies, movies of suitable length were obtained for each of the analog concentrations. Analysis was performed using ImageJ."}}, "data": [{"smiles": "C/C=C/C(=O)C[C@@H]1CCC(C)C(CC(=O)NC[C@H](O)[C@H](C)C(=O)NCCC[C@H]2O[C@@]3(CCC[C@@H](CC[C@H](C)/C=C(\\C)C(C)O)O3)CCC2C)O1", "note": "(some centres unmarked) [Bistramide A (1), bistramide A, reference compound]", "values": [{"measurement": "Kd", "setting": "G-actin [1]", "value": 7, "unit": "nM"}, {"measurement": "GI50", "setting": "A549 cells", "value": 20, "unit": "nM"}, {"measurement": "GI50", "setting": "A549 cells; values of the text", "value": 20.4, "unit": "nM"}, {"measurement": "concentration inducing actin depolymerization in A549 cells", "setting": "F-actin in A549 cells", "value": 150, "unit": "nM"}, {"measurement": "covalent modification of G-actin", "setting": "G-actin [2]", "value": "covalently modified G-actin"}, {"measurement": "inhibition of tumor growth in xenograft model", "setting": "[3]", "value": "ineffective at reducing tumor growth"}, {"measurement": "general toxicity", "setting": "[4]", "value": "high general toxicity"}, {"measurement": "effect on filamentous actin", "setting": "filamentous actin; 750 nM", "value": "rapid filament depletion"}, {"measurement": "No. of breaks per 100 μm", "setting": "filamentous actin; compound at 0.75 μM", "value": 40.4, "unit": "per 100 μm"}, {"measurement": "Pointed-end depolymerization rate", "setting": "filamentous actin; compound at 0.75 μM, standard deviations 0.1-0.3 subunits/s", "value": 0.49, "unit": "subunits/s"}, {"measurement": "Barbed-end depolymerization rate", "setting": "filamentous actin; compound at 0.75 μM, standard deviations 0.4-0.6 subunits/s", "value": 1.88, "unit": "subunits/s"}]}]}
